Data: patent publication US20140171417A1, “TRICYCLIC COMPOUNDS” (NOVARTIS AG, priority 2012, published 2014)

biological target: T1, CFTR (Homo sapiens, UniProt P13569); test: IonWorks Quattro assay (CFTR Inhibitor Assay), whole-cell planar patch clamp; type: cell-based; settings: inward current (−100 mV); CHO cells stably expressing WT-CFTR; CFTR activated by 10 μM forskolin; test compound incubated 10 min
T1 construct: expressed in transfected cells
From the text: CFTR activity can be quantified by electrophysiology methods, using the whole-cell configuration of the patch clamp technique (Hamill O, Marty A, Neher E, Sakmann B and Sigworth F. ‘Improved patch-clamp techniques for high resolution current recording from cells and cell-free membrane patches.’ Pflugers Archive 1981 391: 85-100). This assay directly measures the currents associated with chloride flow through CFTR channels whilst either maintaining or adjusting the transmembrane voltage. This assay can use either single glass micropipettes or parallel planar arrays to measure CFTR activity from native or recombinant cell systems. Currents measured using parallel planar arrays can be quantified using an appropriately equipped instrument such as the IonWorks Quattro (Molecular Devices Corporation, Sunnyvale, Calif.). The Quattro system can measure CFTR currents from either a single cell per recording well (HT configuration) or alternatively from a population of 64 cells per well (Population Patch Clamp PPC) (Finkel A, Wittel A, Yang N, Handran S, Hughes J, Costantin J. ‘Population patch clamp improves data consistency and success rates in the measurement of ionic currents.’ J Biomol Screen. 2006 August; 11 (5):488-96).
Chinese hamster ovary (CHO) cells stably expressing WT-CFTR channels were used for the IonWorks Quattro experiments. Cells were maintained at 37° C. in 5% v/v CO2 at 100% humidity in MEM alpha medium supplemented with 10% (v/v) FCS, 100 U/mL Penicillin/Streptomycin, and 100 μg/L methotrexate. For experiments, cells were grown in 225 cm^2 tissue culture flasks until almost confluent. Cells were removed from the flask using trypsin-EDTA and resuspended in extracellular recording solution for immediate experimentation.
Cells, at a density of 1.5-2 million per mL, were placed on the Quattro system, added to the planar patch plate and seals allowed to establish for 5-10 mins. After assessing seal resistances (typically >50 MΩ), whole-cell access was obtained by perforation with 100 μg/mL amphotericin B. Baseline currents were measured by a pre-compound scan obtained by application of a voltage ramp from −100 to +100 mV. CFTR was activated by the addition of 10 μM forskolin to each of the 384 wells of the patch plate. After 5 min incubation the post-compound 1 currents were measured, again by application of a voltage ramp from −100 to +100 mV. Test compounds, diluted from 10 mM stocks in DMSO in extracellular solution were then added to the patch plate and were incubated for a further 10 min. The post-compound 2 currents were measured by the application of the same voltage ramp from −100 to +100 mV. The inhibition of CFTR was determined from the difference in current between the forskolin addition (post-compound 1) and the test compound (post-compound 2). This was determined at both −100 mV and +100 mV which represents the inward and outward current respectively.
Extracellular solution (ECS): 145 mM NaCl, 4 mM CsCl, 5 mM D-glucose, 10 mM TES, 1 mM CaCl2, 1 mM MgCl2, pH 7.4 NaOH
Intracellular solution (ICS): 113 mM L-Aspartic acid, 113 mM CsOH, 27 mM CsCl, 1 mM NaCl, 1 mM MgCl2, 1 mM EGTA, 10 mM TES. pH 7.2 with CsOH. Filter sterilized before use.

T1 sequence (P13569 whole entry): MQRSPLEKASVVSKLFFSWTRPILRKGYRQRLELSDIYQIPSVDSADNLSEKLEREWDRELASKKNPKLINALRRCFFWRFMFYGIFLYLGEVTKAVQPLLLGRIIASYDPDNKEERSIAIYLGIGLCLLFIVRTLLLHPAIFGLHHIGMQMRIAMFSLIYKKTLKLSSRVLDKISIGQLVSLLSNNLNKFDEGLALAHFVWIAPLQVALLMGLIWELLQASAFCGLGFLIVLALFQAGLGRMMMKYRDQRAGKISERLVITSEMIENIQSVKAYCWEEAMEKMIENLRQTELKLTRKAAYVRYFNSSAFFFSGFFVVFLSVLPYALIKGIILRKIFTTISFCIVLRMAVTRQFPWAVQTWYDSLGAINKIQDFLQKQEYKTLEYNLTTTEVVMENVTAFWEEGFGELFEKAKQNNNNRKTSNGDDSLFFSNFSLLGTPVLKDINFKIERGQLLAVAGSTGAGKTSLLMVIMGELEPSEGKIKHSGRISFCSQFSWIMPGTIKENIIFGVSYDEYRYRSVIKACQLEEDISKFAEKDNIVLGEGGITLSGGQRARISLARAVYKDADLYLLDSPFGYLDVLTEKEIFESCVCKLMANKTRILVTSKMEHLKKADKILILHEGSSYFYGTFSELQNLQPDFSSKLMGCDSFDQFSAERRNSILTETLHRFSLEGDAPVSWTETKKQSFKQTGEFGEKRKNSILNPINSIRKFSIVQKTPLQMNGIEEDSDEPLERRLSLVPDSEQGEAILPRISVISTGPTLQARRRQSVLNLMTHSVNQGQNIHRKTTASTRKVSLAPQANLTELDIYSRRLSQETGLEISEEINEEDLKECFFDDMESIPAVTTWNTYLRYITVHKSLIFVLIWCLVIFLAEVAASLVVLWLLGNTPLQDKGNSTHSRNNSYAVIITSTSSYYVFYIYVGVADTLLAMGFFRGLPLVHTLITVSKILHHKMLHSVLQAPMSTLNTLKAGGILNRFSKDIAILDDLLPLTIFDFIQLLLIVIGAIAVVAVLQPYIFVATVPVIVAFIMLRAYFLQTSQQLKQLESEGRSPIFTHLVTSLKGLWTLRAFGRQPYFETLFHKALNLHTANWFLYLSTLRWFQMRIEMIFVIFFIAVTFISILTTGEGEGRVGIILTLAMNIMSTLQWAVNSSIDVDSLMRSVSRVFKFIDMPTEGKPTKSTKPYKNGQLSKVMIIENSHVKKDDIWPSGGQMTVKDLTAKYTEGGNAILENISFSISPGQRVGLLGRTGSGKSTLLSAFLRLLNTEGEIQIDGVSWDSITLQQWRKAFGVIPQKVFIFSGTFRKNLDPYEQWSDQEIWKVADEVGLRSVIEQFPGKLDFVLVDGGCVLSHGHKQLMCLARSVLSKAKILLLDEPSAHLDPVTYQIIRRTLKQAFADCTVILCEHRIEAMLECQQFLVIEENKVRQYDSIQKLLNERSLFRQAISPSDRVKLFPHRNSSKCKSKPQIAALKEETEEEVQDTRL

Cn1c(=O)c2c(-c3ccccc3)n3c(c2n(C)c1=O)C(c1cccc(Cl)c1)SCC3 (racemic) [Example 1.6, 10-(3-Chlorophenyl)-1,3-dimethyl-5-phenyl-7,8-dihydro-1H-pyrimido[4′,5′:3,4]pyrrolo[2,1-c][1,4]thiazine-2,4(3H,10H)-dione] and Cc1ccc(C2SCCn3c(-c4ccccc4)c4c(=O)n(C)c(=O)n(C)c4c32)s1 (racemic) [Example 1.10, 1,3-Dimethyl-10-(5-methylthiophen-2-yl)-5-phenyl-7,8-dihydro-1H-pyrimido[4′,5′:3,4]pyrrolo[2,1-c][1,4]thiazine-2,4(3H,10H)-dione] are within 1.5-fold of each other in IC50: 11.1 µM for the first, 8.08 µM for the second.

Compared with Cn1c(=O)c2c(-c3ccccc3)n3c(c2n(C)c1=O)C(c1cccc(F)c1F)CCC3 (racemic) [Example 6.1, 10-(2,3-Difluorophenyl)-1,3-dimethyl-5-phenyl-7,8,9,10-tetrahydropyrimido[4,5-a]indolizine-2,4(1H,3H)-dione], Cn1c(=O)c2c(-c3ccccc3)n3c(c2n(C)c1=O)C(c1cccc(C#N)c1)CCC3 (racemic) [Example 9.2, 3-(1,3-Dimethyl-2,4-dioxo-5-phenyl-1,2,3,4,7,8,9,10-octahydropyrimido[4,5-a]indolizin-10-yl)benzonitrile] is 3-fold lower in IC50: 27.6 µM for the first, 9.3 µM for the second.

Going from Cc1csc(C2CCNn3c(-c4ccccc4)c4c(=O)n(C)c(=O)n(C)c4c32)n1 (racemic) [Example 10.0, 1,3-Dimethyl-10-(4-methylthiazol-2-yl)-5-phenyl-7,8,9,10-tetrahydropyrimido[4′,5′:3,4]pyrrolo[1,2-b]pyridazine-2,4(1H,3H)-dione] to Cc1csc(C2CCNn3c(-c4cccc(Cl)c4)c4c(=O)n(C)c(=O)n(C)c4c32)n1 (racemic) [Example 10.2, 5-(3-Chlorophenyl)-1,3-dimethyl-10-(4-methylthiazol-2-yl)-7,8,9,10-tetrahydropyrimido[4′,5′:3,4]pyrrolo[1,2-b]pyridazine-2,4(1H,3H)-dione], the IC50 falls from 2.15 µM to 0.7 µM (3.1-fold). The second is the more potent here.

Compared with Cc1ccc(C2CCn3c(-c4ccccc4)c4c(=O)n(C)c(=O)n(C)c4c32)o1 (racemic) [Example 11.0, 1,3-Dimethyl-9-(5-methylfuran-2-yl)-5-phenyl-8,9-dihydro-1H-pyrimido[4,5-a]pyrrolizine-2,4(3H,7H)-dione], Cc1ccc(C2SCCn3c(-c4ccccc4)c4c(=O)n(C)c(=O)n(C)c4c32)o1 (single isomer, unassigned) [Example 1.2, 1,3-Dimethyl-10-(5-methylfuran-2-yl)-5-phenyl-7,8-dihydro-1H-pyrimido[4′,5′:3,4]pyrrolo[2,1-c][1,4]thiazine-2,4(3H,10H)-dione] is 12-fold lower in IC50: 9.14 µM for the first, 0.79 µM for the second. The second is the more potent here.

Cn1cnc(-c2c3c(=O)n(C)c(=O)n(C)c3c3n2CCSC3c2ccc(Cl)o2)c1 (racemic) [Example 15.7, 10-(5-Chlorofuran-2-yl)-1,3-dimethyl-5-(1-methyl-1H-imidazol-4-yl)-7,8-dihydro-1H-pyrimido[4′,5′:3,4]pyrrolo[2,1-c][1,4]thiazine-2,4(3H,10H)-dione] and Cn1cc(-c2c3c(=O)n(C)c(=O)n(C)c3c3n2CCSC3c2ccc(Cl)o2)cn1 (racemic) [Example 15.8, 10-(5-Chlorofuran-2-yl)-1,3-dimethyl-5-(1-methyl-1H-pyrazol-4-yl)-7,8-dihydro-1H-pyrimido[4′,5′:3,4]pyrrolo[2,1-c][1,4]thiazine-2,4(3H,10H)-dione] are within 1.5-fold of each other in IC50: 5.5 µM for the first, 3.93 µM for the second.

Compared with Cc1nnc(-c2c3c(=O)n(C)c(=O)n(C)c3c3n2CCSC3c2ccc(Cl)o2)o1 (racemic) [Example 15.9, 10-(5-Chlorofuran-2-yl)-1,3-dimethyl-5-(5-methyl-1,3,4-oxadiazol-2-yl)-7,8-dihydro-1H-pyrimido[4′,5′:3,4]pyrrolo[2,1-c][1,4]thiazine-2,4(3H,10H)-dione], Cc1coc(-c2c3c(=O)n(C)c(=O)n(C)c3c3n2CCSC3c2ccc(Cl)o2)n1 (racemic) [Example 15.10, 10-(5-Chlorofuran-2-yl)-1,3-dimethyl-5-(4-methyloxazol-2-yl)-7,8-dihydro-1H-pyrimido[4′,5′:3,4]pyrrolo[2,1-c][1,4]thiazine-2,4(3H,10H)-dione] is 1.6-fold lower in IC50: 1.9 µM for the first, 1.18 µM for the second. The second is the more potent here.

Compared with Cc1ccc(C2c3c4c(c(-c5cccc(F)c5)n3CCC2(F)F)c(=O)n(C)c(=O)n4C)o1 (racemic) [Example 18, 9,9-Difluoro-5-(3-fluorophenyl)-1,3-dimethyl-10-(5-methylfuran-2-yl)-7,8,9,10-tetrahydropyrimido[4,5-a]indolizine-2,4(1H,3H)-dione], Cc1ccc(C2SCCn3c(-c4ccccc4)c4c(=O)n(C)c(=O)n(C)c4c32)o1 (single isomer, unassigned) [Example 1.3, 1,3-Dimethyl-10-(5-methylfuran-2-yl)-5-phenyl-7,8-dihydro-1H-pyrimido[4′,5′:3,4]pyrrolo[2,1-c][1,4]thiazine-2,4(3H,10H)-dione] is higher in IC50: 0.48 µM for the first, > 30 µM for the second.

Cn1ccc(-c2c3c(=O)n(C)c(=O)n(C)c3c3n2CCCC3c2nc(Cl)cs2)n1 (racemic) [Example 22, 10-(4-Chlorothiazol-2-yl)-1,3-dimethyl-5-(1-methyl-1H-pyrazol-3-yl)-7,8,9,10-tetrahydropyrimido[4,5-a]indolizine-2,4(1H,3H)-dione] and C=C1Cn2c(-c3cccc(F)c3)c3c(=O)n(C)c(=O)n(C)c3c2C1c1nc(Cl)cs1 (racemic) [Example 29, 9-(4-Chlorothiazol-2-yl)-5-(3-fluorophenyl)-1,3-dimethyl-8-methylene-8,9-dihydro-1H-pyrimido[4,5-a]pyrrolizine-2,4(3H,7H)-dione] are within 1.5-fold of each other in IC50: 0.47 µM for the first, 0.44 µM for the second.

First: Cn1c(=O)c2c(-c3nc(C(=O)O)cs3)n3c(c2n(C)c1=O)C(c1ccc(Cl)o1)SCC3 (racemic) [Example 25, 2-(10-(5-Chlorofuran-2-yl)-1,3-dimethyl-2,4-dioxo-2,3,4,7,8,10-hexahydro-1H-pyrimido[4′,5′:3,4]pyrrolo[2,1-c][1,4]thiazin-5-yl)thiazole-4-carboxylic acid]
Second: Cc1csc(-c2c3c(=O)n(C)c(=O)n(C)c3c3n2CCSC3c2ccc(Cl)o2)n1 (single isomer, unassigned) [Example 3.1.1, 10-(5-chlorofuran-2-yl)-1,3-dimethyl-5-(4-methylthiazol-2-yl)-7,8-dihydro-1H-pyrimido[4′,5′:3,4]pyrrolo[2,1-c][1,4]thiazine-2,4(3H,10H)-dione]
The IC50 of the first is 12-fold higher: 4.84 µM for the first, 0.41 µM for the second.

First: Cc1ccc(C2SC[C@H](CN(C)C)n3c(-c4ccccc4)c4c(=O)n(C)c(=O)n(C)c4c32)o1 (single isomer, unassigned) [Example 2.1, 7-((dimethylamino)methyl)-1,3-dimethyl-10-(5-methylfuran-2-yl)-5-phenyl-7,8-dihydro-1H-pyrimido[4′,5′:3,4]pyrrolo[2,1-c][1,4]thiazine-2,4(3H,10H)-dione]
Second: Cn1c(=O)c2c(-c3cccc(C#N)c3)n3c(c2n(C)c1=O)C(c1ccc(Cl)o1)SCC3 (single isomer, unassigned) [Example 3.5, 3-(10-(5-chlorofuran-2-yl)-1,3-dimethyl-2,4-dioxo-2,3,4,7,8,10-hexahydro-1H-pyrimido[4′,5′:3,4]pyrrolo[2,1-c][1,4]thiazin-5-yl)benzonitrile]
The IC50 of the first is 2.6-fold higher: 0.41 µM for the first, 0.16 µM for the second. The second is the more potent here.

Cn1c(=O)c2c(C3=CCCCC3)n3c(c2n(C)c1=O)C(c1ccc(Cl)o1)SCC3 (single isomer, unassigned) [Example 3.1.2, 10-(5-chlorofuran-2-yl)-5-(cyclohex-1-en-1-yl)-1,3-dimethyl-7,8-dihydro-1H-pyrimido[4′,5′:3,4]pyrrolo[2,1-c][1,4]thiazine-2,4(3H,10H)-dione] and CCn1c(=O)c2c(-c3ccccc3)n3c(c2n(CC)c1=O)C(c1ccc(Cl)o1)SCC3 (single isomer, unassigned) [Example 4.2, 10-(5-Chlorofuran-2-yl)-1,3-diethyl-5-phenyl-7,8-dihydro-1H-pyrimido[4′,5′:3,4]pyrrolo[2,1-c][1,4]thiazine-2,4(3H,10H)-dione] are within 1.5-fold of each other in IC50: 1.51 µM for the first, 1.67 µM for the second.
